According to US20260315611A1, “LINKER COMPOUNDS AND LIGAND-DRUG CONJUGATES, PREPARATION METHODS AND USES THEREOF” (Biocytogen Pharmaceuticals (Beijing) Co., Ltd., priority 2023, published 2026):

Tests used:
NCI-H292 cells = assay: anti-tumor activity in NCI-H292 xenograft model; format: in vivo, NCI-H292 xenograft in B-NDG mice; details: 10 mg/kg i.v. BIW x2
Protocol: (§1) The lengths of the long axis and the short axis of the tumor were measured and the volume of the tumor was calculated as 0.5×(long axis)×(short axis)2. […] Ti is the average tumor volume in the treatment group on day i. T0 is the average tumor volume in the treatment group on day zero. Vi is the average tumor volume in the control group on day i. V0 is the average tumor volume in the control group on day zero. T-test was performed for statistical analysis. […] P<0.05 is a threshold to indicate significant difference. The body weights of the mice were also measured throughout the entire administration period.
The antibody or ADCs were tested for their effects on tumor growth in vivo in a xenograft model of lung cancer. Specifically, about 5×10^6 NCI-H292 cells were injected subcutaneously in B-NDG mice. When the tumors in the mice reached a volume of about 300 mm^3, the mice were randomly placed into different groups based on tumor volume. The mice were then injected with PBS, antibody, or ADCs by intravenous (i.v.) administration.

A431 cells = assay: anti-tumor activity in A431 xenograft model; format: in vivo, A431 xenograft in B-NDG mice; details: 10 mg/kg i.v. BIW x4
Protocol: as §1
The ADCs were tested for their effects on tumor growth in vivo in a xenograft model of epidermoid carcinoma. Specifically, about 1×10^6 A431 cells were injected subcutaneously in B-NDG mice. When the tumors in the mice reached a volume of about 200 mm^3, the mice were randomly placed into different groups based on tumor volume. The mice were then injected with PBS, antibody, or ADCs by intravenous (i.v.) administration.

L6 = assay: in vitro killing activity; format: cell-based, Rat; details: 120 h incubation
Protocol: (§2) Different concentrations of compounds CPT-1, CPT-2, CPT-3, CPT-4, Dxd (MedChem Express, Cat #: HY-13631D) and SN38 (MedChem Express, Cat #: HY-13704) were used to treat different human tumor cell lines, mice tumor cell lines, rat tumor cell lines or dog tumor cell lines cultured in a cell culture plate, respectively. And the killing activity was detected after 72 h-120 h incubation by IncuCyte (Sartorius AG, IncuCyte® S3) or MicroplateReader.

PC12 = assay: in vitro killing activity; format: cell-based, Rat; details: 120 time of incubation
Protocol: as §2

multiple cell lines = assay: in vitro killing activity, multiple tumor cell lines; format: cell-based, human, mice, rat, dog
Protocol: as §2

NCI-H1781 = assay: in vitro killing activity; format: cell-based, Human; details: Homo sapiens, NCI-H1781; 120 time of incubation
Protocol: as §2

Panc 02.03 = assay: in vitro killing activity; format: cell-based, Human; details: Homo sapiens, Panc 02.03; 120 time of incubation
Protocol: as §2

HCC1954 = assay: in vitro killing activity; format: cell-based, Human; details: Homo sapiens, HCC1954; 120 time of incubation
Protocol: as §2

NCI-H1975 = assay: in vitro killing activity; format: cell-based, Human; details: 120 time of incubation
Protocol: as §2

NCI-N87 = assay: in vitro killing activity; format: cell-based, Human; details: 120 time of incubation
Protocol: as §2

SW620 = assay: in vitro killing activity; format: cell-based, Human; details: 120 h incubation
Protocol: as §2

BT474 = assay: in vitro killing activity; format: cell-based, Human; details: Homo sapiens, BT-474; 120 time of incubation
Protocol: as §2

HuH-7 = assay: in vitro killing activity; format: cell-based, Human; details: 120 h incubation
Protocol: as §2

U-2-OS = assay: in vitro killing activity; format: cell-based, Human; details: Homo sapiens, U2OS; 120 time of incubation
Protocol: as §2

Hela = assay: in vitro killing activity; format: cell-based, Human; details: 120 h incubation
Protocol: as §2

HS-746T = assay: in vitro killing activity; format: cell-based, Human; details: Homo sapiens, Hs746T; 120 time of incubation
Protocol: as §2

LOVO = assay: in vitro killing activity; format: cell-based, Human; details: 120 h incubation
Protocol: as §2

NCI-H69 = assay: in vitro killing activity; format: cell-based, Human; details: Homo sapiens, NCI-H69; 120 time of incubation
Protocol: as §2

NCI-H2030 = assay: in vitro killing activity; format: cell-based, Human; details: Homo sapiens, NCI-H2030; 120 time of incubation
Protocol: as §2

SKOV-3 = assay: in vitro killing activity; format: cell-based, Human; details: Homo sapiens, SK-OV-3; 120 time of incubation
Protocol: as §2

NCI-H226 = assay: in vitro killing activity; format: cell-based, Human; details: 120 h incubation
Protocol: as §2

BxPC-3 = assay: in vitro killing activity; format: cell-based, Human; details: Homo sapiens, BXPC-3; 120 time of incubation
Protocol: as §2

SW156 = assay: in vitro killing activity; format: cell-based, Human; details: Homo sapiens; 120 time of incubation
Protocol: as §2

A-431 = assay: in vitro killing activity; format: cell-based, Human; details: Homo sapiens, A-431; 120 time of incubation
Protocol: as §2

PC-3 = assay: in vitro killing activity; format: cell-based, Human; details: Homo sapiens, PC-3; 120 time of incubation
Protocol: as §2

OVKATE = assay: in vitro killing activity; format: cell-based, Human; details: Homo sapiens; 120 time of incubation
Protocol: as §2

DCOL1 (S+L−) = assay: in vitro killing activity; format: cell-based, Dog; details: Canis lupus familiaris; 120 time of incubation
Protocol: as §2

MP-0094-2 = assay: in vitro killing activity; format: cell-based, Dog; details: Canis lupus familiaris; 120 time of incubation
Protocol: as §2

MP-0094-3 = assay: in vitro killing activity; format: cell-based, Dog; details: Canis lupus familiaris; 120 time of incubation
Protocol: as §2

MP-1044-1 = assay: in vitro killing activity; format: cell-based, Dog; details: Canis lupus familiaris; 72 time of incubation
Protocol: as §2

D17 = assay: in vitro killing activity; format: cell-based, Dog; details: Canis lupus familiaris, D17; 120 time of incubation
Protocol: as §2

MP-1092-1 = assay: in vitro killing activity; format: cell-based, Dog; details: Canis lupus familiaris; 120 time of incubation
Protocol: as §2

CMT-U27 = assay: in vitro killing activity; format: cell-based, Dog; details: Canis lupus familiaris; 120 time of incubation
Protocol: as §2

MC38 = assay: in vitro killing activity; format: cell-based, Mice; details: Mus musculus, MC-38; 120 time of incubation
Protocol: as §2

CT26 = assay: in vitro killing activity; format: cell-based, Mice; details: Mus musculus, CT26; 96 time of incubation
Protocol: as §2

B16F10 = assay: in vitro killing activity; format: cell-based, Mice; details: Mus musculus, B16-F10; 75 time of incubation
Protocol: as §2

Pgp = details: cited from earlier work

Sacituzumab govitecan: humanized anti-TROP2 monoclonal antibody-drug conjugate from Immunomedics, Inc
Tumor volume Day 21 (NCI-H292 cells): 428 ± 51 mm^3 | Tumor volume Day 39 (NCI-H292 cells): 893 ± 62 mm^3 | Tumor volume Day 0 (NCI-H292 cells; day of grouping (baseline)): 297 ± 11 mm^3 | Tumor volume Day 17 (A431 cells): 682 ± 71 mm^3 | Tumor volume Day 31 (A431 cells): 1554 ± 144 mm^3 | Tumor volume Day 0 (A431 cells; day of grouping (baseline)): 197 ± 6 mm^3

CC[C@@]1(O)C(=O)OCc2c1cc1n(c2=O)Cc2c-1nc1ccc(N)c3c1c2CCO3 [CPT-2, (S)-4-amino-9-ethyl-9-hydroxy-1,9,12,15-tetrahydro-13H-pyrano[4,3,2-de]pyrano[3′,4′:6,7]indolizino[1,2-b]quinoline-10,13(2H)-dione]
IC50 (L6; Rattus norvegicus, L6): 3.88 nM | IC50 (PC12; Rattus norvegicus, PC-12): 1.77 nM | in vitro killing activity (multiple cell lines): good in vitro killing activity | tumor cell inhibition effect compared with Dxd and SN38 (multiple cell lines): higher tumor cell inhibition effect than Dxd and SN38 | IC50 (NCI-H1781): 0.399 nM | IC50 (Panc 02.03): 0.301 nM | IC50 (HCC1954): 1.14 nM | IC50 (NCI-H1975; Homo sapiens, NCI-H1975): 1.97 nM | IC50 (NCI-N87; Homo sapiens, NCI-N87): 1.48 nM | IC50 (SW620; Homo sapiens, SW-620): 0.824 nM | IC50 (BT474): 11.9 nM | IC50 (HuH-7; Homo sapiens, Huh-7): 0.662 nM | IC50 (U-2-OS): 1.41 nM | IC50 (Hela; Homo sapiens, HeLa): 1.41 nM | IC50 (HS-746T): 0.55 nM | IC50 (LOVO; Homo sapiens, LoVo): 1.15 nM | IC50 (NCI-H69): 0.318 nM | IC50 (NCI-H2030): 1.31 nM | IC50 (SKOV-3): 1.96 nM | IC50 (NCI-H226; Homo sapiens, NCI-H226): 2.77 nM | IC50 (BxPC-3): 0.289 nM | IC50 (SW156): 0.615 nM | IC50 (A-431): 2.84 nM | IC50 (PC-3): 1.97 nM | IC50 (OVKATE): 2.04 nM | IC50 (DCOL1 (S+L−)): 2.29 nM | IC50 (MP-0094-2): 4.69 nM | IC50 (MP-0094-3): 7.15 nM | IC50 (MP-1044-1): 8.53 nM | IC50 (D17): 1.29 nM | IC50 (MP-1092-1): 1.75 nM | IC50 (CMT-U27): 1.28 nM | IC50 (MC38): 9.57 nM | IC50 (CT26): 5.63 nM | IC50 (B16F10): 5.47 nM

CCc1c2c(nc3ccc(O)cc13)-c1cc3c(c(=O)n1C2)COC(=O)[C@]3(O)CC [SN38, reference compound]
IC50 (L6): 20.8 nM | IC50 (PC12): 5.66 nM | Pgp substrate (Pgp): Pgp substrates | IC50 (NCI-H1975): 13.2 nM | IC50 (NCI-N87): 7.39 nM | IC50 (SW620): 4.6 nM | IC50 (HuH-7): 2.41 nM | IC50 (Hela): 6.61 nM | IC50 (LOVO): 10.2 nM | IC50 (NCI-H226): 20.4 nM

CC[C@@]1(O)C(=O)OCc2c1cc1n(c2=O)Cc2c-1nc1ccc(N)c3c1c2CCS3 [CPT-1]
IC50 (L6; Rattus norvegicus, L6): 3.69 nM | IC50 (PC12; Rattus norvegicus, PC-12): 1.67 nM | in vitro killing activity (multiple cell lines): good in vitro killing activity | tumor cell inhibition effect compared with Dxd and SN38 (multiple cell lines): higher tumor cell inhibition effect than Dxd and SN38 | IC50 (NCI-H1781): 0.297 nM | IC50 (Panc 02.03): 0.266 nM | IC50 (HCC1954): 1.31 nM | IC50 (NCI-H1975; Homo sapiens, NCI-H1975): 1.71 nM | IC50 (NCI-N87; Homo sapiens, NCI-N87): 1.2 nM | IC50 (SW620; Homo sapiens, SW-620): 0.75 nM | IC50 (BT474): 6.22 nM | IC50 (HuH-7; Homo sapiens, Huh-7): 0.742 nM | IC50 (U-2-OS): 2.65 nM | IC50 (Hela; Homo sapiens, HeLa): 1.03 nM | IC50 (HS-746T): 0.523 nM | IC50 (LOVO; Homo sapiens, LoVo): 1.52 nM | IC50 (NCI-H69): 0.299 nM | IC50 (NCI-H2030): 1.1 nM | IC50 (SKOV-3): 1.8 nM | IC50 (NCI-H226; Homo sapiens, NCI-H226): 2.37 nM | IC50 (BxPC-3): 0.213 nM | IC50 (SW156): 0.373 nM | IC50 (A-431): 2.97 nM | IC50 (PC-3): 0.859 nM | IC50 (OVKATE): 2.24 nM | IC50 (DCOL1 (S+L−)): 1.33 nM | IC50 (MP-0094-2): 2.69 nM | IC50 (MP-0094-3): 3.92 nM | IC50 (MP-1044-1): 8.63 nM | IC50 (D17): 0.841 nM | IC50 (MP-1092-1): 0.988 nM | IC50 (CMT-U27): 0.937 nM | IC50 (MC38): 6.72 nM | IC50 (CT26): 3.84 nM | IC50 (B16F10): 3.29 nM
